# Measurements published in patent EP2070521A1, “Surface-modified nanoparticles” (Bayer Schering Pharma Aktiengesellschaft, priority 2007, dated 2009).
# Test: in vivo
# Conditions: male, NMRI nu/nu, mouse, iv, 8 mg/kg
smiles,measurement,value
"C=CC[C@H]1C(=O)C(C)(C)[C@@H](O)CC(=O)O[C@H](c2ccc3sc(C)nc3c2)C[C@@H]2O[C@]2(C)CCC[C@H](C)[C@@H]1O [epothilone, (1S,3S,7S, 10R,11S,12S,16R)-7,11-dihydroxy-10-(prop-2-en-1-yl)-3-(2-methyl-benzothiazol-5-yl)-8,8,12,16-tetramethyl-4,17-dioxabicyclo[14.1.0]heptadecane-5,9-dione]",Kp at 1 h,16.3
same,Kp at 2 h,29.1
same,Kp at 4 h,27.7
